Results as given in ChEMBL document CHEMBL1201862, “PubChem BioAssay data set” (2004).
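Briefly, cells in 96-well plates were exposed to five compound concentrations for 48 h, and endpoints were estimated by linear interpolation. GI50: concentration for 50% inhibition of growth.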 Activity calls are given as the source filed them. Cut-off read from the data, not from the text of the source: active = GI50 up to about 1.1 µM and inactive = higher.

Tests used:
Test in all cases: NCI-60 cell line screen, 48 h
[1] = tested on: HOP-18
[2] = tested on: SNB-78
[3] = tested on: DMS-273
[4] = tested on: XF498
[5] = tested on: DLD-1
[6] = tested on: DMS-114
[7] = tested on: M19-MEL
[8] = tested on: RXF 631
[9] = tested on: LXFL 529

Measured: GI50

COC(=O)C12OCC34C(CC5C(C)=C(O)C(=O)CC5(C)C3C(O)C1O)OC(=O)C(OC(=O)C=C(C)C)C24 (centres undefined)
inactive: [1] > 500 µM | [2] > 476 µM | [3] > 500 µM | [4] 335 µM | [5] 108 µM | [6] 167 µM | [7] 287 µM

CC(=O)c1c(C)[n+]([O-])c2cc(C)c(C)cc2[n+]1[O-]
inactive: [8] > 100 µM | [1] > 100 µM | [2] > 100 µM | [3] > 100 µM | [4] > 100 µM | [5] > 100 µM | [6] > 100 µM | [7] > 100 µM | [9] > 100 µM

COc1ccc(OC)c(CCc2cc(OC)c(OC)cc2C)c1
inactive: [2] 7.52 µM | [4] 77.6 µM | [5] 4.7 µM | [6] 5.65 µM | [7] 5.51 µM | [9] 30.1 µM

Nc1nc2c(ncn2CCOC(c2ccccc2)P(=O)(O)O)c(=O)[nH]1 (centres undefined)
inactive: [2] > 100 µM | [3] > 100 µM | [5] > 100 µM | [9] > 100 µM

COC(=O)C(=O)C(/C(=N/N)C(=O)Nc1ccccc1C(N)=O)c1nc2ccc([N+](=O)[O-])cc2nc1O (centres undefined)
inactive: [2] > 100 µM | [3] > 100 µM | [4] > 100 µM | [5] > 100 µM | [6] > 100 µM | [7] > 100 µM | [9] > 100 µM

Cc1ccc([N+](=O)[O-])c2c(NCCCN(C)C)ccnc12
inactive: [2] 55.7 µM

O=C1OCc2nc3c(c(-c4ccccc4C(F)(F)F)c21)C(=O)OC3
inactive: [1] > 100 µM | [2] > 100 µM | [3] > 100 µM | [5] > 100 µM | [6] > 100 µM | [7] > 100 µM | [9] > 100 µM

COc1ccccc1C1C(C(=O)Nc2ccccc2)=C(C)NC(C)=C1C(=O)Nc1ccccc1
inactive: [8] 62.8 µM | [1] > 100 µM | [2] > 100 µM | [3] 34 µM | [4] 36.3 µM | [6] 41.8 µM | [7] 50.6 µM | [9] 61.5 µM

S=c1[nH]c(=S)c2nnn(-c3ccccc3)c2[nH]1
inactive: [3] > 100 µM | [4] > 100 µM | [5] > 100 µM | [6] 5.97 µM | [7] > 100 µM | [9] > 100 µM

NC(=O)NNC(=O)CCn1[nH]c(=O)c(Cl)c(Cl)c1=O
inactive: [8] > 100 µM | [1] > 100 µM | [2] > 100 µM | [3] > 100 µM | [5] > 100 µM | [6] > 100 µM | [7] > 100 µM | [9] > 100 µM

COc1ccc(C2=Nc3ccccc3SC(C)C2)cc1 (centres undefined)
inactive: [8] 68.4 µM | [2] > 100 µM | [3] 78.7 µM | [5] 81.8 µM | [6] 73.3 µM | [7] 94.6 µM | [9] 85.1 µM

O=c1[nH]c2nc3ccccc3c(=O)n2nc1Cc1ccccc1
inactive: [2] > 100 µM | [3] > 100 µM | [5] > 100 µM | [6] > 100 µM | [9] > 100 µM

N#Cc1cccc(C2SCc3nc4ccccc4n32)c1 (centres undefined)
inactive: [8] > 100 µM | [2] > 100 µM | [3] > 100 µM | [4] 33.6 µM | [5] 65.5 µM | [6] 49.4 µM | [9] 42.1 µM

O=C(NCc1ccccc1)c1cc2ccc(O)c(O)c2cn1
inactive: [1] 20.7 µM | [2] 18.1 µM | [3] 17.4 µM | [4] 17.4 µM | [5] 18.5 µM | [6] 12.8 µM | [7] 1.8 µM | [9] 16.9 µM

Cc1c(Cl)ccc2c1NC(=O)C2(O)CC(=O)c1ccc(Cl)cc1Cl (centres undefined)
inactive: [8] 31 µM | [2] 21.8 µM | [3] > 50 µM | [4] 16.7 µM | [6] 38.5 µM | [7] > 50 µM | [9] 27.8 µM

CCc1cccc(C)c1NC(=O)C1=C(C)NC(C)=C(C(=O)Nc2c(C)cccc2CC)C1c1ccc2c(c1)OCO2
inactive: [8] 20 µM | [2] 25.8 µM | [4] 15.7 µM | [5] 20.5 µM | [6] 16.2 µM | [7] 21.4 µM | [9] 18.2 µM

O=C(NCc1ccccc1)C1C(=O)C(=O)N(Cc2ccccc2)C1=O (centres undefined)
inactive: [8] > 100 µM | [1] > 100 µM | [2] > 100 µM | [3] > 100 µM | [5] > 100 µM | [7] > 100 µM | [9] > 100 µM

CCOc1ccccc1NC(=O)CC1C(=O)Nc2ccccc2[S+]1[O-] (centres undefined)
inactive: [2] > 100 µM | [3] 66.5 µM | [4] 44.8 µM | [5] > 100 µM | [6] > 100 µM | [7] > 100 µM | [9] 56.8 µM

CCCCNC1CCCCC[C@H]1O (some centres undefined)
inactive: [1] > 100 µM | [2] > 100 µM | [3] > 100 µM | [5] > 100 µM | [6] > 100 µM | [7] > 100 µM | [9] > 100 µM

C/C(=C\C(C)COCc1ccccc1)[C@H](COCc1ccccc1)OCc1ccccc1 (some centres undefined)
inactive: [8] > 100 µM | [2] > 100 µM | [3] > 100 µM | [4] 8.53 µM | [6] 57.5 µM | [7] > 100 µM | [9] 82 µM

CCC1C(=O)OCc2c1cc1n(c2=O)Cc2ccccc2-1 (centres undefined)
inactive: [8] > 100 µM | [1] > 100 µM | [2] > 100 µM | [3] > 100 µM | [4] > 100 µM | [5] > 100 µM | [6] > 100 µM | [7] > 100 µM | [9] > 100 µM

CCCCCCCCCCCC[N+]12CC[N+](C)(CC1)CC2
inactive: [1] 43.6 µM | [2] 26.4 µM | [3] 3.69 µM | [4] 20.7 µM | [5] 13.8 µM | [6] 19.9 µM | [7] 19.5 µM | [9] 25.7 µM
